Results published in publication PMC3183257 (Tuberculosis (Edinburgh, Scotland), 2011).
In brackets after ≈: the same amount, converted by molar mass.

Experiments:
[1] = tested on: Mycobacterium tuberculosis H37Rv; assay: Mtb dose response; format: cell-based; conditions: for IC90: Table 2, Mtb H37Rv dose response
[2] = tested on: tufted apple budmoth larvae (P. idaeusalis); conditions: cited from earlier work
Vero cells = assay: Cell cytotoxicity assay using Vero cells, CellTiter-Glo luminescence

Row | Compound | IC90 [1] [µg/mL] | other results
1 | Cc1cc(C)cc(Nc2cc(C)nc3c(-c4ccccc4)cnn23)c1 [Compound 4c] | 2.7 (≈ 8.22 µM) | –
2 | COc1cccc(Nc2cc(C)nc3c(-c4ccccc4)cnn23)c1 [Compound 4b] | 1.8 (≈ 5.45 µM) | –
3 | Cc1cc(Nc2ccc(C)c(C)c2)n2ncc(-c3ccccc3)c2n1 [Compound 4e] | 3.4 (≈ 10.4 µM) | –
4 | COP(=S)(OC)SCn1nnc2ccccc2c1=O [azinphosmethyl] | – | susceptibility of larvae [2]: susceptible
5 | CCOc1ccc(C(=O)Nc2nnc(-c3ccccn3)o2)cc1 [Compound 22a] | – | activity and toxicity in words ([1]; Mtb IC90 and Vero selectivity): potent and relatively non-toxic
6 | Cc1cc(Nc2ccc(C)c(Cl)c2)n2ncc(-c3ccccc3)c2n1 [Compound 4d] | 3.4 (≈ 9.75 µM) | –
7 | COc1ccccc1-c1cnn2c(Nc3cccc(Cl)c3)cc(C)nc12 [Compound 4a] | 1.7 (≈ 4.66 µM) | –
8 | O=C(OCn1nnc2ccccc2c1=O)c1ccccc1 [Compound 7a] | – | cytotoxicity (Vero cells): > 40 µg/mL
9 | NCC[C@H](O)C(=O)N[C@@H]1C[C@H](N)[C@@H](O[C@H]2O[C@H](CN)[C@@H](O)[C@H](O)[C@H]2O)[C@H](O)[C@H]1O[C@H]1O[C@H](CO)[C@@H](O)[C@H](N)[C@H]1O [amikacin, reference compound] | – | IC50 ([1]; Mycobacterium tuberculosis, H37RV): 0.13 µg/mL (≈ 0.222 µM); inhibition at 0.13 µg/mL ([1]; Mycobacterium tuberculosis, H37RV, read-out: inhibition of Mtb growth): 33 to 60%
